Experimental findings from PubChem BioAssay (NCI) are described below.

What all share (assay): NCI tumour cell line growth inhibition, 48 h
Assay [1] deals with MCF7 breast.
Assay [2] has as its system HS 578T breast.
Assay [3] has as its system NCI-H226 lung.
The subject of assay [4] is 786-0 renal.
The subject of assay [5] is EKVX NSCLC.
Assay [6] relates to SNB-19 CNS.
Assay [7] relates to SK-MEL-28 melanoma.
Assay [8] has as its system PC-3 prostate.
Assay [9] concerns MALME-3M melanoma.
Assay [10] has as its system SR leukemia.

Several values for one entry are separate records, joined by “and”; a condition that tells them apart may be missing. Identical values can stand only once.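 All cell lines were grown in 96-well plates and treated with compound for 48 hours. The concentration for 50% growth inhibition is given as GI50. Definition used: TGI = concentration required for complete inhibition of growth.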 Where only a bound is given, the exact number is not on record here.

Turning to `C[C@]12CC[C@H]3[C@@H](CCC4=CC(=O)CC[C@@H]43)[C@@H]1CC[C@@H]2OC1(O)C(=O)c2ccccc2C1=O`, the TGI in [1] was above 100 µM; in assay [2], above 100 µM; in assay [3], above 100 µM; in [4] it was 83.5 µM; in assay [5], 2.79 µM; in assay [6], above 100 µM. Also, the TGI in [7], in [8], in assay [9] and in assay [10] was above 100 µM throughout.
As for `CCOC(=O)c1cc2c(cc1Cl)SC(N(c1ccc(F)cc1)S(=O)(=O)c1ccc(OC)cc1)=NS2(=O)=O`, the GI50 in [1] was 11.8 µM; in [2] it was 20.7 µM; in [3], 29.8 µM; in [4] it was 24.4 µM; in assay [5], 21.2 µM; in [6], 18.6 µM. Besides, the GI50 is 14.1 µM in [7], 11.3 µM in [8], 14.9 µM in assay [9] and 16.8 µM in assay [10]. Besides, the TGI is 25.4 µM in assay [1]; 51.3 µM in [2]; above 100 µM in [3]; 54.1 µM in assay [4]; 51.8 µM in assay [5]; 51.2 µM in assay [6]. The TGI stood at 29 µM in assay [7], 25.5 µM in [8], 32.8 µM in assay [9] and 37.9 µM in assay [10].
On to `C#Cc1cccc(NC(=O)Nc2ccc(NC(=O)CCl)cc2)c1`, for which the GI50 is 27.8 µM in [1]; 17.8 µM in assay [2]; 22.4 µM in assay [3]; 12.5 µM in assay [4]; above 82.5 µM in assay [5]; 15.7 µM in assay [6]. Also, the GI50 in assay [7] is above 82.5 µM; in [8] it was 17.1 µM; in [9], 12.1 µM; in assay [10] it was 9.79 µM. Further, the TGI was above 82.5 µM in assay [1]; 81.7 µM in [2]; 73.9 µM in assay [3]; 23.7 µM in assay [4]; above 82.5 µM in assay [5]; 40.8 µM in assay [6]. Further, the TGI is above 82.5 µM in [7], 74.5 µM in assay [8], 23.9 µM in assay [9] and 26.7 µM in assay [10].
For `Cc1ccc(NC(=O)c2ccnc(C(F)(F)F)c2)cc1-c1cc(OCCO)nc(N2CCOCC2)c1`, the GI50 in assay [1] is 2.28 µM; in [2], 2.59 µM; in assay [3] it was 2.81 µM; in assay [4], 6.29 µM; in assay [5], 2.44 µM; in assay [6], 3.64 µM. Also, the GI50 in [7] is 0.377 µM; in [8] it was 3.24 µM; in assay [9] it was 0.108 µM; in assay [10] it was 0.613 µM. For the same compound, the TGI in [1] came out at 17.8 µM; in assay [2], 23.7 µM; in [3], 34.6 µM; in [4], 38.2 µM; in assay [5], 29.5 µM; in [6], 19.2 µM. Besides, the TGI in assay [7] was 11.3 µM; in assay [8] it was above 100 µM; in assay [9] it was 0.66 µM; in assay [10], above 100 µM.
Regarding `O=C(O)CC(Cc1ccc2c(c1)OCO2)C(=O)O` (configuration not stated), the TGI in [1], in assay [2], in [3], in assay [4], in assay [5] and in assay [6] was above 100 µM in each case. The TGI in assay [7], in assay [8], in [9] and in [10] was above 100 µM in each case.
Take `COC(=O)c1c2c(c(C)[n+]([O-])c1C)C(=O)C=C(NCc1ccc(Cl)cc1)C2=O`: the GI50 in [1] is 0.267 µM; in assay [2] it was 1.77 µM; in assay [3], 1.43 µM; in assay [4] it was 1.32 µM; in [5], 0.783 µM; in [6] it was 1.16 µM. For the same compound, the GI50 is 0.733 µM in assay [7], 0.289 µM in [8], 0.157 µM in assay [9] and 0.733 µM in assay [10]. Besides, the TGI came out at 0.98 µM in assay [1]; 6.5 µM in assay [2]; 3.52 µM in [3]; 3.57 µM in assay [4]; 2.39 µM in assay [5]; 2.39 µM in [6]. For the same compound, the TGI came to 2.59 µM in assay [7], 3.17 µM in [8], 0.381 µM in [9] and 7.91 µM in assay [10].
Turning to `CCCCCCCCCCCCCCCCC(C(=O)O)C(O)(CC(=O)O)C(=O)O` (configuration not stated), the TGI in assay [1] was above 100 µM; in assay [2], 58.6 µM; in assay [3] it was 47.3 µM; in assay [4], above 100 µM; in assay [5], 39.3 µM; in [6], 79.3 µM. For the same compound, the TGI in [7] is 59.1 µM; in assay [8], 38.8 µM; in assay [9], above 100 µM; in [10] it was 81 µM.
`Cc1cccc(C(C)O)n1` (configuration not stated): the TGI in assay [1], in [2], in assay [3], in assay [4], in assay [5] and in assay [6] was above 100 µM each time. In addition, the TGI in assay [7], in assay [8], in assay [9] and in [10] was above 100 µM each time.
Regarding `CC[C@@]1(O)C(=O)NCc2c1cc1n(c2=O)Cc2cc3cc4c(cc3nc2-1)OCO4`, the GI50 is 0.217 µM in assay [1]; 94.1 µM in assay [2]; 2 µM in [3]; 0.672 µM in assay [4]; 12.9 µM in assay [5]; 0.379 µM in assay [6]. Also, the GI50 in assay [7] is 45.1 µM; in assay [8], 2.38 µM; in [9], 1.47 µM; in assay [10], below 0.0176 µM. Moreover, the TGI was above 100 µM in [1]; above 100 µM in assay [2]; above 85.1 µM in [3]; 14.4 µM in assay [4]; above 87.1 µM in assay [5]; above 61.5 µM in assay [6]. The TGI in assay [7] was above 100 µM; in assay [8], above 100 µM; in [9], 35.7 µM; in [10], 0.2 µM.
Regarding `COc1cc2c(cc1OCCCCCOc1cc(-c3ccc(F)cc3)nc(C)n1)N=C[C@@H]1CCCN1C2=O`, the GI50 is above 23.6 µM in [1]; above 47.5 µM in [2]; above 100 µM in assay [3]; above 44.9 µM in [4]; above 50.1 µM in assay [5]; above 46.2 µM in assay [6]. Also, the results for the GI50 in assay [7], in assay [8] and in [9] were above 46.2 µM, above 33.3 µM and above 48.3 µM, respectively. Also, the TGI in [1] was above 48.8 µM; in assay [2], above 81.2 µM; in assay [3], above 100 µM; in assay [4], above 67.5 µM; in assay [5], above 81 µM; in assay [6], above 100 µM. Besides, the TGI in assay [7] was above 79.8 µM; in assay [8] it was above 60.5 µM; in assay [9], above 68.7 µM; in [10], above 57.9 µM.
As for `COc1cc(N2CCC(N(C)C)CC2)ccc1Nc1ncc(Cl)c(Nc2ccccc2P(C)(C)=O)n1`, the GI50 in assay [1] was 0.202 µM and 0.0522 µM; in [2], 1.83 µM and 0.496 µM; in assay [3] it was 0.454 µM and 0.0582 µM; in assay [4], 1.12 µM and 0.483 µM; in assay [5], 0.344 µM; in assay [6], 2.25 µM and 1.07 µM. Further, the GI50 in [7] is 6.44 µM and 1.31 µM; in assay [8], 3.73 µM and 0.506 µM; in [10] it was < 0.0113 µM and 0.0295 µM. Further, the TGI in [1] is 21.6 µM and > 10 µM; in [2], 8.27 µM and 2.21 µM; in assay [3], 2.76 µM and 4.21 µM; in assay [4] it was 10 µM and > 6.3 µM; in [5] it was above 7.38 µM; in assay [6], 98.7 µM and > 10 µM. For the same compound, the TGI in assay [7] is 37 µM and > 7.34 µM; in assay [8], above 96.6 µM; in assay [9] it was 31.7 µM and > 7.77 µM.
Take `COc1ncnc2c(NC3OC(CO)C(O)C3O)ncnc12` (configuration not stated): the TGI in assay [1] is 0.443 µM; in assay [2], 4.86 µM; in [3], 3.82 µM; in assay [4] it was 14 µM; in [5], above 49 µM; in [6], 74 µM. Moreover, the TGI in assay [7] was above 100 µM; in assay [8], 12.6 µM; in assay [9] it was above 100 µM; in [10], 0.276 µM.
